# Data reported in paper PMC7554340, “A Novel Dual-Targeted α-Helical Peptide With Potent Antifungal Activity Against Fluconazole-Resistant Candida albicans Clinical Isolates” (Frontiers in Microbiology, 2020).
# Read-outs that look alike come from different tables or passages of the source. No end group written: not given here.
# How the values were obtained:
# C. albicans sp3903 [1] = assay: microbe, parasite or virus in culture; details: Candida albicans, SP3903, 48 h
# C. albicans sp3931 [2] = assay: microbe, parasite or virus in culture; details: Candida albicans, SP3931, 48 h
# C. albicans 58288 [3] = assay: microbe, parasite or virus in culture; details: Candida albicans, 58288, 48 h
# C. albicans 17546 [4] = assay: microbe, parasite or virus in culture; details: Candida albicans, 17546, 48 h
# C. albicans cgmcc 2.2086 [5] = assay type: cell-based, Candida albicans
# C. albicans sp3902 [6] = assay: microbe, parasite or virus in culture; details: Candida albicans, SP3902, 48 h
# C. albicans 14936 [7] = assay: microbe, parasite or virus in culture; details: Candida albicans, 14936, 48 h
# C. albicans 56214 [8] = assay: microbe, parasite or virus in culture; details: Candida albicans, 56214, 48 h
# C. albicans 56452 [9] = assay: microbe, parasite or virus in culture; details: Candida albicans, 56452, 48 h
# C. albicans sp3876 [10] = assay: microbe, parasite or virus in culture; details: Candida albicans, SP3876, 48 h
# [11] = tested on: C. tropicalis cgmcc 2.1975; assay: Antifungal activity assay (broth microdilution, MIC/MFC); assay type: cell-based, Candida tropicalis
# [12] = tested on: C. parapsilosis cgmcc 2.3989; assay: as above; assay type: cell-based, Candida parapsilosis
# C. albicans cgmcc 2.2086 [13] = assay: as above; assay type: cell-based, Candida albicans
# C. albicans sp3902 [14] = details: sp3902, 48 h; for MIC: pH 7
# C. albicans 58288 [15] = details: 58288, 48 h; for MIC: pH 7
# C. albicans sp3903 [16] = details: sp3903, 48 h; for MIC: pH 7
# C. albicans strains = assay: Geometric mean of MIC values against all tested C. albicans; assay type: cell-based, Candida albicans
# C. albicans 56214 [17] = details: 56214, 48 h; for MIC: pH 7
# C. albicans 56452 [18] = details: 56452, 48 h; for MIC: pH 7
# C. albicans 14936 [19] = details: 14936, 48 h; for MIC: pH 7
# C. albicans 17546 [20] = details: 17546, 48 h; for MIC: pH 7
# C. albicans sp3876 [21] = details: sp3876, 48 h; for MIC: pH 7
# C. albicans cgmcc 2.2086 [22] = assay: Membrane potential assay, DiSC3(5); assay type: cell-based, Candida albicans; details: 0.5 × MIC
# Source text: The alteration of membrane potential in peptide-treated C. albicans was detected using the membrane potential-sensitive fluorescent probe, 3,3′-dipropylthiadicarbocyanine iodide [DiSC3(5)] (Sigma-Aldrich, Shanghai, China), as previously described ([Qi et al., 2010]). In brief, C. albicans cells in mid-logarithmic growth-phase were harvested and suspended to an OD600 of 0.05 with 5-mM 4-(2-hydroxyethyl)-1-piperazineethanesulfonic acid buffer (pH 7.4, containing 20-mM glucose). After the addition of 0.4-μM DiSC3(5), samples were incubated for 90 min in the dark to obtain a stable reduction in fluorescence, and then, potassium chloride (4 M) was added to the cell suspension to give a final concentration of 100 mM. Subsequently, 2 ml of cell suspension was added to a 1-cm quartz cuvette and mixed with peptides at different concentrations. The changes in fluorescence were recorded for 900 s with an F-4500 fluorescence spectrophotometer (Hitachi, Japan) at excitation and emission wavelengths of 622 and 670 nm, respectively.
# C. albicans sp3931 [23] = details: sp3931, 48 h; for MIC: pH 7
# IPEC-J2 and PMEC cells = assay: Cytotoxicity MTT assay, statements for both cell lines; details: 24 h, 1-64 μM
# human erythrocytes = assay: Hemolysis assay; details: minimal hemolytic concentration inducing 10% hemolysis of human erythrocytes; 1 h, 37°C, hemoglobin at 570 nm; probit regression; three independent experiments
# Candida strains = details: 48 h
# IPEC-J2 cells = details: IPEC-J2 cells, MTT, 24 h treatment, 1-64 μM; probit regression
# PMEC cells = details: PMEC cells, MTT, 24 h treatment, 1-64 μM; probit regression
compound,measurement,setting,value
"OC(Cn1cncn1)(Cn1cncn1)c1ccc(F)cc1F [FLU, fluconazole]",MFC,C. albicans sp3903 [1],64 µM
same,MIC,C. albicans sp3903 [1]; pH 7,16 µM
same,MFC,C. albicans sp3931 [2],64 µM
same,MIC,C. albicans sp3931 [2]; pH 7,1 µM
same,MFC,C. albicans 58288 [3],> 256 µM
same,MIC,C. albicans 58288 [3]; pH 7,8 µM
same,MFC,C. albicans 17546 [4],> 256 µM
same,MIC,C. albicans 17546 [4]; pH 7,> 256 µM
same,change of MIC after serial passage,C. albicans cgmcc 2.2086 [5],eightfold
same,MFC,C. albicans sp3902 [6],> 256 µM
same,MIC,C. albicans sp3902 [6]; pH 7,16 µM
same,MFC,C. albicans 14936 [7],> 256 µM
same,MIC,C. albicans 14936 [7]; pH 7,32 µM
same,MFC,C. albicans 56214 [8],> 256 µM
same,MIC,C. albicans 56214 [8]; pH 7,> 256 µM
same,MFC,C. albicans 56452 [9],> 256 µM
same,MIC,C. albicans 56452 [9]; pH 7,> 256 µM
same,MFC,C. albicans sp3876 [10],> 256 µM
same,MIC,C. albicans sp3876 [10]; pH 7,> 256 µM
same,MFC,"[11]; Candida tropicalis, CGMCC2, 50 μl of MIC wells plated on YPD agar, 28°C, 48 h, lowest concentration that completely killed fungal cells, consensus of at least three independent experiments",32 µM
same,MIC,"[11]; Candida tropicalis, CGMCC2, broth microdilution, RPMI-MOPS pH 7.0, 28°C, 48 h, lowest concentration inhibiting 99% of growth (A492)",4 µM
same,MFC,"[12]; Lodderomyces parapsilosis, CGMCC2, 50 μl of MIC wells plated on YPD agar, 28°C, 48 h, lowest concentration that completely killed fungal cells, consensus of at least three independent experiments",8 µM
same,MIC,"[12]; Lodderomyces parapsilosis, CGMCC2, broth microdilution, RPMI-MOPS pH 7.0, 28°C, 48 h, lowest concentration inhibiting 99% of growth (A492)",4 µM
same,MFC,"C. albicans cgmcc 2.2086 [13]; Candida albicans, CGMCC2, 50 μl of MIC wells plated on YPD agar, 28°C, 48 h, lowest concentration that completely killed fungal cells, consensus of at least three independent experiments",4 µM
same,MIC,"C. albicans cgmcc 2.2086 [13]; Candida albicans, CGMCC2, broth microdilution, RPMI-MOPS pH 7.0, 28°C, 48 h, lowest concentration inhibiting 99% of growth (A492)",2 µM
"CC[C@H](C)[C@H](NC(=O)CN)C(=O)NCC(=O)N[C@@H](C)C(=O)N[C@H](C(=O)N[C@@H](CC(C)C)C(=O)N[C@@H](CCCCN)C(=O)N[C@H](C(=O)N[C@@H](CC(C)C)C(=O)N[C@H](C(=O)N[C@H](C(=O)NCC(=O)N[C@@H](CC(C)C)C(=O)N1CCC[C@H]1C(=O)N[C@@H](C)C(=O)N[C@@H](CC(C)C)C(=O)N[C@H](C(=O)N[C@@H](CO)C(=O)N[C@@H](Cc1c[nH]c2ccccc12)C(=O)N[C@H](C(=O)N[C@@H](CCCCN)C(=O)N[C@@H](CCCNC(=N)N)C(=O)N[C@@H](CCCCN)C(=O)N[C@@H](CCCNC(=N)N)C(=O)N[C@@H](CCC(N)=O)C(=O)N[C@@H](CCC(N)=O)C(N)=O)[C@@H](C)CC)[C@@H](C)CC)[C@@H](C)O)[C@@H](C)O)C(C)C)C(C)C [Melittin, reference compound]",MFC,C. albicans sp3902 [14],2 µM
same,MIC,C. albicans sp3902 [14],2 µM
same,MFC,C. albicans 58288 [15],4 µM
same,MIC,C. albicans 58288 [15],4 µM
same,MFC,C. albicans sp3903 [16],4 µM
same,MIC,C. albicans sp3903 [16],4 µM
same,GM,C. albicans strains,4.59 µM
same,MFC,C. albicans 56214 [17],4 µM
same,MIC,C. albicans 56214 [17],4 µM
same,MFC,C. albicans 56452 [18],8 µM
same,MIC,C. albicans 56452 [18],8 µM
same,MFC,"[11]; cgmcc 2.1975, 48 h",8 µM
same,MIC,"[11]; cgmcc 2.1975, 48 h, pH 7",4 µM
same,MFC,C. albicans 14936 [19],8 µM
same,MIC,C. albicans 14936 [19],4 µM
same,MFC,C. albicans 17546 [20],8 µM
same,MIC,C. albicans 17546 [20],8 µM
same,MFC,C. albicans sp3876 [21],4 µM
same,MIC,C. albicans sp3876 [21],4 µM
same,"cytoplasmic membrane depolarization, melittin against RF3 (in words)",C. albicans cgmcc 2.2086 [22],stronger membrane depolarization
same,MFC,"[12]; cgmcc 2.3989, 48 h",2 µM
same,MIC,"[12]; cgmcc 2.3989, 48 h, pH 7",2 µM
same,MFC,"C. albicans cgmcc 2.2086 [13]; cgmcc 2.2086, 48 h",8 µM
same,MIC,"C. albicans cgmcc 2.2086 [13]; cgmcc 2.2086, 48 h, pH 7",4 µM
same,MFC,C. albicans sp3931 [23],8 µM
same,MIC,C. albicans sp3931 [23],8 µM
KIGKVLLVKGIKKIGKVL-NH2 [KV3],MFC,C. albicans sp3902 [14],64 µM
same,MIC,C. albicans sp3902 [14],64 µM
same,cytotoxic effects (in words),IPEC-J2 and PMEC cells,negligible cytotoxic effects
same,MFC,C. albicans 58288 [15],64 µM
same,MIC,C. albicans 58288 [15],64 µM
same,HC10,human erythrocytes,>64 µM
same,MFC,C. albicans sp3903 [16],64 µM
same,MIC,C. albicans sp3903 [16],64 µM
same,MFC,C. albicans 56214 [17],32 µM
same,MIC,C. albicans 56214 [17],32 µM
same,MFC,C. albicans 56452 [18],64 µM
same,MIC,C. albicans 56452 [18],32 µM
same,MFC,"[11]; cgmcc 2.1975, 48 h",16 µM
same,MIC,"[11]; cgmcc 2.1975, 48 h, pH 7",16 µM
same,MIC values on Candida strains (range),Candida strains,16 to 64 µM
same,MFC,C. albicans 14936 [19],>64 µM
same,MIC,C. albicans 14936 [19],>64 µM
same,MFC,C. albicans 17546 [20],64 µM
same,MIC,C. albicans 17546 [20],64 µM
same,MFC,C. albicans sp3876 [21],32 µM
same,MIC,C. albicans sp3876 [21],16 µM
same,IC50,IPEC-J2 cells,> 64 µM
same,MFC,"[12]; cgmcc 2.3989, 48 h",32 µM
same,MIC,"[12]; cgmcc 2.3989, 48 h, pH 7",32 µM
same,IC50,PMEC cells,> 64 µM
same,MFC,"C. albicans cgmcc 2.2086 [13]; cgmcc 2.2086, 48 h",32 µM
same,MIC,"C. albicans cgmcc 2.2086 [13]; cgmcc 2.2086, 48 h, pH 7",32 µM
same,MFC,C. albicans sp3931 [23],64 µM
same,MIC,C. albicans sp3931 [23],64 µM
